Consider one molecule from patent US20120107323A1, “KINASE PROTEIN BINDING INHIBITORS” (University of Florida, priority 2009, published 2012).

In this experiment the test system is FAK and IGF-1R pathway effectors. Kind of experiment: Western blot of signaling in melanoma cell lines. Format: cell-based, human. An excerpt: Computational Docking The crystal structures of the N-terminal domain of FAK (PDB code 2AL6) (22) and the kinase domain of IGF-1R(PDB 1P40A) (23) were utilized for in silico molecular modeling of their interaction as previously described. The three-dimensional coordinates of compound NSC344553 (INT2-31), obtained from the database of the National Cancer Institute, Developmental Therapeutics Program (NCI/DTP), were docked onto the predicted interface of the amino-terminus of FAK (amino acids 127-243) with the intracytoplasmic portion of IGF-1R (21). All docking calculations were performed with the University of California-San Francisco DOCK 5.1 program, using a clique-matching algorithm to orient small molecule structures with sets of spheres that describe the target sites on FAK (37). 100 orientations were created for NSC344553 in the target site and were scored using the computer program grid-based scoring function. Docking calculations were performed on the University of Florida High Performance Computing supercomputing cluster (http:hpc.ufl.edu). The intermolecular energies for all configurations of NSC 344553 in binding to FAK-NT2 were calculated as the sum of electrostatic and van der Waals energies. These energy terms were evaluated as correlation functions, which were computed efficiently with Fast Fourier Transforms. Production of GST-fusion proteins: The FAK-GST plasmid constructs (pGEX vector) were kindly provided by Dr. Elena Kurenova (Roswell Park Cancer Institute, Buffalo, N.Y.). His-tagged IGF-1R protein was purchased from Blue Sky Biotechnology (Worchester, Mass.). The GST-fusion proteins (FAK fragments) were expressed in BL21 (DE3) Escherichia coli bacteria by incubation with 0.2 mM isopropyl b-D-galactopyranoside (IPTG) for 6 h at 37° C. The bacteria were lysed by sonication, and the fusion proteins were purified with glutathione-Sepharose 4B beads (GE Healthcare, NJ). Pull-down assay: For the pull-down binding assay, His-tagged IGF-1R fragment protein (200 ng) were precleared with GST immobilized on glutathione-Sepharose 4B beads. The precleared His-tagged protein was incubated with 0.2 μg of GST-FAK fusion protein immobilized on the glutathione-Sepharose 4B beads for 1 h at 4° C. and then washed 3× with PBS. Equal amounts of GST-fusion proteins were used for each binding assay. Bound proteins were boiled in 6× Laemmli buffer and analyzed by SDS-PAGE and Western blotting. Immunoprecipitation and western blotting: Cells were washed twice with ice cold 1×PBS and lysed in buffer containing 20 mM Tris, pH 7.4, 150 mM NaCl, 1% NP-40, 5 mM EDTA acid, protease inhibitors (Complete™ Protease Inhibitor, Roche, N.J.) and phosphatase inhibitors (Calbiochem, Calif.). For immunoprecipitation, 100-200 μg of total cell extract was used for each sample. The extracts were incubated with 1 μg of antibody overnight at 4° C. Next, 25 μl of protein A/G-agarose beads were added and the samples were incubated for 2 h at 4° C. The precipitates were washed 4× with lysis buffer and samples containing 30 μg of protein were resolved by SDS-PAGE. The intensity of the bands in the western blots was measured with scion image analysis software program. Short hairpin RNA Transfection of cells: Control shRNA (mock) and FAK shRNAs was obtained from Open Biosystems. The sequences of short hairpin RNAs against human FAK were: (5′-[…] TCCAATCGTTTTG-3′; 5′-[…]-3′) and control shRNA (mock) (5′-[…]-3′). For the transfection of cells (2×10^5 cells/well) were seeded into 6-well plates in 2 ml medium one day prior to transfection. According to the protocols of the manufacturer, cells were transfected using Lipofectamine 2000 reagent (Invitrogen, CA).
Western blotting: boiled samples containing 30 μg of protein were resolved by sodium dodecyl sulfate-polyacrylamide gel electrophoresis followed by transferring to polyvinylidene difluoride membrane (Bio-Rad, Hercules, Calif.). […]

Molecules are shown by their SMILES.

`CSc1ncnc2c1ccn2C1O[C@H](COP(=O)(O)O)[C@@H](O)[C@H]1O` (stereo partly drawn) [INT2-31, 4-(Methylthio)-7-(5-O-phosphono-D-ribofuranosyl)-{7H-Pyrrolo[2,3-d]pyrimidine}]: the “dose necessary to significantly decrease p-Akt” value (A375 cells) fell in the range of 1 to 5 µM. Also, the “time course of Akt phosphorylation” value (C8161, 5 μM, 24, 48 and 72 hours) is listed as “some dephosphorylation after 24 hours of treatment with a sustained effect at 72 hours”. Moreover, the “dose necessary to significantly decrease p-Akt” value (SK-MEL-28 cells) lay within 5 to 10 µM. The p-ERK entry (all cell lines, higher doses) was “slight decrease”. Also, under “three melanoma cell lines”, the “constitutive and IGF-1 induced signaling to AKT” value is reported as “consistent inhibition”; the “constitutive or IGF-1 induced phosphorylation of IGF-1R” value is recorded as “no significant effect”; the “constitutive phosphorylation of FAK” value was “no significant effect”.
